Measured values from the NIST ThermoML archive (doi:10.1021/acs.jced.8b00975).

Experiment: xn = mol fraction of the nth substance listed
Conditions: Liquid, Vibrating tube method

C=C(C)C(=O)OCCN(C)C [2-(dimethylamino)ethyl methylpropenoate] + CCCCCO
mass density [kg/m3]
Conditions	100 kPa	5000 kPa	10000 kPa	15000 kPa	20000 kPa	25000 kPa	30000 kPa	35000 kPa
293.15 K, x1 = 0.0299	821.4	824.97	828.31	831.49	834.52	837.46	840.35	843.21
293.15 K, x1 = 0.0601	827.36	830.88	834.21	837.36	840.4	843.36	846.28	849.21
293.15 K, x1 = 0.1006	834.83	838.39	841.73	844.91	847.96	850.92	853.82	856.7
293.15 K, x1 = 0.2011	851.81	855.36	858.7	861.88	864.94	867.91	870.84	873.77
293.15 K, x1 = 0.3004	866.6	870.17	873.54	876.75	879.84	882.84	885.78	888.7
293.15 K, x1 = 0.402	879.66	883.27	886.67	889.9	893.01	896.03	899.02	902
293.15 K, x1 = 0.4518	885.55	889.17	892.6	895.88	899.03	902.08	905.07	908.03
293.15 K, x1 = 0.5004	890.97	894.63	898.09	901.38	904.54	907.61	910.63	913.62
293.15 K, x1 = 0.5486	896.13	899.78	903.24	906.53	909.71	912.79	915.83	918.85
293.15 K, x1 = 0.601	901.42	905.08	908.55	911.86	915.05	918.14	921.18	924.2
293.15 K, x1 = 0.7021	910.74	914.43	917.91	921.22	924.41	927.53	930.63	933.76
293.15 K, x1 = 0.8019	918.94	922.6	926.1	929.46	932.72	935.91	939.06	942.19
293.15 K, x1 = 0.9008	926.27	929.96	933.48	936.87	940.15	943.35	946.5	949.63
293.15 K, x1 = 0.9306	928.32	932.04	935.56	938.93	942.19	945.38	948.54	951.72
293.15 K, x1 = 0.9645	930.63	934.34	937.87	941.25	944.51	947.7	950.84	953.97
303.15 K, x1 = 0.0307	814.24	818.14	821.74	825.07	828.2	831.19	834.07	836.92
303.15 K, x1 = 0.0604	819.89	823.73	827.29	830.63	833.79	836.81	839.72	842.58
303.15 K, x1 = 0.1009	827.11	830.9	834.46	837.81	841.01	844.07	847.03	849.93
303.15 K, x1 = 0.2025	843.87	847.62	851.18	854.56	857.79	860.91	863.93	866.88
303.15 K, x1 = 0.3	857.94	861.71	865.28	868.68	871.95	875.13	878.24	881.32
303.15 K, x1 = 0.3999	870.67	874.45	878.06	881.52	884.85	888.08	891.24	894.35
303.15 K, x1 = 0.4506	876.6	880.36	883.98	887.47	890.84	894.11	897.3	900.41
303.15 K, x1 = 0.5037	882.4	886.19	889.83	893.35	896.76	900.07	903.29	906.44
303.15 K, x1 = 0.5495	887.14	890.94	894.58	898.1	901.5	904.82	908.07	911.28
303.15 K, x1 = 0.6012	892.24	896.07	899.73	903.25	906.65	909.98	913.25	916.5
303.15 K, x1 = 0.7014	901.28	905.16	908.86	912.4	915.83	919.2	922.54	925.89
303.15 K, x1 = 0.8023	909.34	913.19	916.92	920.53	924.05	927.5	930.88	934.23
303.15 K, x1 = 0.9025	916.57	920.44	924.19	927.82	931.37	934.86	938.3	941.71
303.15 K, x1 = 0.9307	918.44	922.34	926.12	929.8	933.38	936.89	940.33	943.73
303.15 K, x1 = 0.9625	920.67	924.56	928.32	931.98	935.55	939.05	942.5	945.92
313.15 K, x1 = 0.0305	806.61	810.57	814.26	817.73	821.04	824.24	827.39	830.53
313.15 K, x1 = 0.0602	812.04	816	819.71	823.21	826.55	829.77	832.92	836.03
313.15 K, x1 = 0.1004	819.08	823.09	826.82	830.32	833.66	836.89	840.06	843.25
313.15 K, x1 = 0.2011	835.38	839.35	843.09	846.64	850.04	853.32	856.53	859.71
313.15 K, x1 = 0.2999	849.45	853.38	857.13	860.71	864.15	867.48	870.73	873.91
313.15 K, x1 = 0.4001	862.05	866.03	869.81	873.43	876.91	880.27	883.53	886.72
313.15 K, x1 = 0.4514	867.85	871.88	875.71	879.36	882.87	886.24	889.51	892.71
313.15 K, x1 = 0.498	872.93	876.96	880.8	884.47	888	891.4	894.7	897.93
313.15 K, x1 = 0.5495	878.17	882.25	886.12	889.81	893.35	896.76	900.07	903.31
313.15 K, x1 = 0.5984	882.9	887.01	890.9	894.6	898.15	901.58	904.91	908.18
313.15 K, x1 = 0.7004	892.03	896.09	900.01	903.79	907.43	910.93	914.29	917.51
313.15 K, x1 = 0.8001	900.15	904.24	908.18	911.97	915.62	919.14	922.52	925.76
313.15 K, x1 = 0.8995	907.42	911.49	915.45	919.28	922.99	926.57	930.03	933.36
313.15 K, x1 = 0.9328	909.62	913.75	917.76	921.63	925.35	928.93	932.36	935.63
313.15 K, x1 = 0.9616	911.53	915.62	919.61	923.5	927.26	930.88	934.33	937.6
